Assay results published in PMC2747684, “Sustained antiproliferative mechanisms by RB24, a targeted precursor of multiple inhibitors of epidermal growth factor receptor and a DNA alkylating agent in the A431 epidermal carcinoma of the vulva cell line” (British Journal of Cancer, 2004).
pIC50: −log10 of the molar value.

Key:
[1] = target: T1, epidermal growth factor receptor (EGFR) (Homo sapiens, UniProt P00533)
[2] = target: T1, epidermal growth factor receptor (EGFR); assay: EGF-induced EGFR autophosphorylation in A431 cells (Western blot), with washout reversibility assay; type: cell-based

T1 sequence (P00533 25-1210): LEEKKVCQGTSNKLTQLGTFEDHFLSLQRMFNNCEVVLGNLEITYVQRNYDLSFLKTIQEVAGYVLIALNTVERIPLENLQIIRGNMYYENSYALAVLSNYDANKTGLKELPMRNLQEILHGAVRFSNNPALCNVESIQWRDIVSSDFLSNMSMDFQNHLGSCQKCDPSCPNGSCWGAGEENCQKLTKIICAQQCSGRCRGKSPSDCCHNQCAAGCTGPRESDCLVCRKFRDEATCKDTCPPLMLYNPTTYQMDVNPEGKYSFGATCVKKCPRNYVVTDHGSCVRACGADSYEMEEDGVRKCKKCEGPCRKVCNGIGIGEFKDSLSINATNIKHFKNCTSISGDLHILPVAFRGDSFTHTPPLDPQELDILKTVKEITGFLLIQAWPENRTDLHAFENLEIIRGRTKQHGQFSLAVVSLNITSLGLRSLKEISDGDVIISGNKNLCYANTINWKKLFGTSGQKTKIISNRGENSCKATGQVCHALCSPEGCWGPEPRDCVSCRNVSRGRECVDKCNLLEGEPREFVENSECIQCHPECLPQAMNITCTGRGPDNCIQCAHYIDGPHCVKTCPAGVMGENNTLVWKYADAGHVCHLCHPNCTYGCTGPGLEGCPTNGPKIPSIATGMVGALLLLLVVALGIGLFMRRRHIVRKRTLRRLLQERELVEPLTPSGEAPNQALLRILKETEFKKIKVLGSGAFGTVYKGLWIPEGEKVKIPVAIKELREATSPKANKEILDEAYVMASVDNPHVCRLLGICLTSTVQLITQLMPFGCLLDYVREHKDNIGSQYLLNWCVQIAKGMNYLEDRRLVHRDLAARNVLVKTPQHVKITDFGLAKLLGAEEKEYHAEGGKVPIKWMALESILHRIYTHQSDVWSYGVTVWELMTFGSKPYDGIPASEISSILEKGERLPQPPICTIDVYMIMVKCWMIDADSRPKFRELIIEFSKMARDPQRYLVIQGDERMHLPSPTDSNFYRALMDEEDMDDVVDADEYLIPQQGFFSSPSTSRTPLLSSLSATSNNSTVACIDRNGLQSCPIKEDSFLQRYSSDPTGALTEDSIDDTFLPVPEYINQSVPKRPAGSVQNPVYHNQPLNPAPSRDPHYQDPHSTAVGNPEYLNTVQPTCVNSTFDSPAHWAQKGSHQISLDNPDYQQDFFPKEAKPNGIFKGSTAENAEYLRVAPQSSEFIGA

| pIC50 [2] | Compound | EGFR autophosphorylation in A431 cells at 30 μM, before and after washout (Weste) [1] |
| --- | --- | --- |
|  | Nc1ccc2ncnc(Nc3cccc(Br)c3)c2c1 [RB10] | the naked inhibitor, RB10, was shown to have completely reversible inhibition of EGFR autophosphorylation |
|  | CN(CO)/N=N/c1ccc2ncnc(Nc3cccc(Br)c3)c2c1 [RB14] | irreversible inhibition was observed in cells exposed to the daughter molecules, RB14 and ZR08 |
| ~5.70 | CC(=O)OCN(C)/N=N/c1ccc2ncnc(Nc3cccc(Br)c3)c2c1 [RB24] |  |
